Test: Solubility observed during complexation
Assay type: physicochemical
Procedure: Ligand II is not soluble either in 0.1 M HCl or in H2O. The complexation was carried out in MeOH using zirconium (IV) acetylacetonate [Zr(acac)4]. A mixture of ligand II (50 mg, 0.058 mmol) and Zr(acac)4 (28.3 mg, 0.058 mmol) in 15 mL MeOH was heated at reflux for 15 h with continuous stirring under N2 atmosphere. The solvent was then removed and the residue was then washed with Et2O (20 mL) and acetone (10 mL). The compound was obtained as off white solid (48 mg, 87%). The compound is it not soluble in common organic solvents including DMSO. […] Therefore due to the limited solubility NMR spectra of the compound could not be obtained. However, the formation of the complex can be confirmed using LC-MS. Elemental analysis calculated for C38H64N8O14Zr.6H2O.(CH3)2CO3C, 44.19, H, 7.42, N, 10.06. Found C, 44.11, H, 7.04, N, 10.16.

solubility in 0.1 M HCl (0.1 M HCl): not soluble
solubility in H2O (H2O): not soluble
SMILES: CC(=O)N(O)CCCCCNC(=O)CCC(=O)N(O)CCCCCNC(=O)CCC(=O)N(O)CCCCCNC(=O)CCC(=O)N(O)CCCCCNC(=O)CCC(=O)O [Ligand II, 4-[5-[[4-[5-[[4-[5-[[4-[5-[acetyl(hydroxy)amino]pentylamino]-4-oxo-butanoyl]-hydroxy-amino]pentylamino]-4-oxo-butanoyl]-hydroxy-amino]pentylamino]-4-oxo-butanoyl]-hydroxy-amino]pentylamino]-4-oxo-butanoic acid]

Reference: patent US11033642B2, “Multidentate bifunctional chelating agents for radionuclide complexation in diagnostics and therapy” (UNIVERSITAT ZURICH, priority 2014, dated 2021)
